Experimental data published in BindingDB's records for doi:10.1016/j.bmcl.2015.06.046 (Cubist Pharmaceuticals, 2015).

Test: Antagonist activity at CCR9 receptor (unknown origin) by serum chemotaxis assay

## CC(C)(C)c1ccc(S(=O)(=O)Nc2ccc(Cl)cc2-c2nccnc2NCCO)cc1
  IC50: 170 nM
